# Data published in patent US20240158348A1, “HERBICIDAL CYCLIC AMIDES N-SUBSTITUTED WITH A HALOALKYLSULFONYLANILIDE GROUP” (FMC Corporation, priority 2021, published 2024).
# Tests used:
# Assay type in all cases: in vivo
# kochia (Bassia scoparia) = experiment: Test C postemergence, kochia; details: for Kochia plant response rating: visual injury, 0 to 100 scale (0 no effect, 100 complete control)
# Method in brief: (§1)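 Ratings run from 0, meaning no effect, up to 100, meaning complete control, judged by eye against untreated plants. Treatment was a directed soil spray before emergence or a postemergence spray on 2–10 cm seedlings, with evaluation 10 or 12 days later.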
# [1] = tested on: barnyardgrass (Echinochloa crusgalli); experiment: Test D flooded paddy test, barnyardgrass; parameters: key: 0 = no effect, 100 = complete control; details: 250 g ai/ha, Flood; applied to paddy water at 2-leaf stage; visual rating after 13 days; scale 0 (no effect) to 100 (complete control)
# Method in brief: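 Plants were grown to the 2-leaf stage, then pots were flooded to 3 cm above soil and compounds applied directly into the paddy water, with that depth held throughout. After 13 days in a greenhouse, injury was visually rated against untreated controls on a 0–100 scale (0 no effect, 100 complete control).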
# [2] = tested on: oat, wild (wild oat, Avena fatua); experiment: Test C preemergence, wild oat; details: 0 is no effect, 100 is complete control
# Method in brief: as §1
# corn (Zea mays) = experiment: Test C preemergence, corn; details: 0 is no effect, 100 is complete control
# Method in brief: (§2)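 Herbicidal effect was estimated visually on a 0–100 scale 10 or 12 days after spraying. Formulation: non-phytotoxic solvent mixture with surfactant. Timing: directed soil spray after sowing, or postemergence on seedlings bearing one or two leaves.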
# [3] = tested on: goosegrass (Eleusine indica); experiment: Test C postemergence, goosegrass; details: for Goosegrass plant response rating: visual injury, 0 to 100 scale (0 no effect, 100 complete control)
# Method in brief: as §1
# [4] = tested on: wheat (Triticum aestivum); experiment: Test C preemergence, wheat; details: 0 is no effect, 100 is complete control
# [5] = tested on: foxtail, giant (giant foxtail, Setaria faberi); experiment: Test C preemergence, giant foxtail; details: 0 is no effect, 100 is complete control
# Method in brief: as §1
# [6] = tested on: ragweed (common ragweed, Ambrosia artemisiifolia); experiment: Test C preemergence, ragweed; details: 0 is no effect, 100 is complete control
# Method in brief: as §2
# [7] = 125 g ai/ha Postemergence, 0 is no effect, 100 is complete control
SMILES,Kochia plant response rating (kochia (Bassia scoparia); 31 g ai/ha Postemergence),Kochia plant response rating (kochia (Bassia scoparia); 125 g ai/ha Postemergence),"Plant response rating, Barnyardgrass [1]","Plant response rating (0 to 100 scale), Oat, Wild ([2]; 31 g ai/ha Preemergence)","Plant response rating (0 to 100 scale), Oat, Wild ([2]; 125 g ai/ha Preemergence)","Plant response rating (0 to 100 scale), Corn (corn (Zea mays); 31 g ai/ha Preemergence)","Plant response rating (0 to 100 scale), Corn (corn (Zea mays); 125 g ai/ha Preemergence)",Goosegrass plant response rating ([3]; 31 g ai/ha Postemergence),Goosegrass plant response rating ([3]; 125 g ai/ha Postemergence),"Plant response rating (0 to 100 scale), Wheat ([4]; 31 g ai/ha Preemergence)","Plant response rating (0 to 100 scale), Wheat ([4]; 125 g ai/ha Preemergence)","Plant response rating (0 to 100 scale), Foxtail, Giant ([5]; 31 g ai/ha Preemergence)","Plant response rating (0 to 100 scale), Foxtail, Giant ([5]; 125 g ai/ha Preemergence)","Plant response rating (0 to 100 scale), Ragweed ([6]; 125 g ai/ha Preemergence)","Plant response rating (0 to 100 scale), Ragweed ([6]; 31 g ai/ha Preemergence)","Plant response rating (0 to 100 scale), Kochia (kochia (Bassia scoparia); [7])","Plant response rating (0 to 100 scale), Goosegrass [3, 7]"
Cc1cc(C)c(N(COC(=O)C(C)(C)C)S(=O)(=O)C(F)(F)F)cc1N1CCC(OCC2CC(F)(F)C2)C1=O (centres unmarked) [Compound 55],0,20,50,0,20,0,10,40,90,10,40,0,10,40,,,
Cc1c(N2CCC(OC3CC3)C2=O)cc(N(COC(=O)C(C)(C)C)S(=O)(=O)C(F)(F)F)c(C)c1C (centres unmarked) [Compound 49],40,60,100,60,90,0,50,20,80,30,90,20,90,100,100,,
Cc1cc(C)c(N2CCC(OCC3CCC3(F)F)C2=O)cc1NS(=O)(=O)C(F)(F)F (centres unmarked) [Compound 52],20,70,20,20,90,10,90,0,70,90,100,90,100,30,0,,
Cc1cc(C)c(N(COC(=O)C(C)(C)C)S(=O)(=O)C(F)(F)F)cc1N1CCC(OCC2CC2(F)F)C1=O (centres unmarked) [Compound 54],30,50,45,0,80,0,30,60,90,0,80,0,80,60,0,,
"CO/N=C1\CCN(c2cc(NS(=O)(=O)C(F)(F)F)c(C)cc2C)C1=O [Compound 9, 1,1,1-trifluoro-N-[5-[3-(methoxyimino)-2-oxo-1-pyrrolidinyl]-2,4-dimethylphenyl]methanesulfonamide]",80,,10,90,100,50,100,90,,90,100,100,100,90,50,90,90
Cc1cc(C)c(N(COC(=O)C(C)(C)C)S(=O)(=O)C(F)(F)F)cc1N1CCC(OCC2CC2)C1=O (centres unmarked) [Compound 53],20,50,40,0,90,0,50,60,90,60,90,10,90,70,60,,
